The values below come from patent publication US6444688B1, “Compounds and compositions with nitrogen-containing non-basic side chains” (Eli Lilly and Company, priority 1995, dated 2002).

Data set [1] relates to uterine eosinophil peroxidase activity. The data set is described as follows: Uterine eosinophil peroxidase (EPO) assay, four day dosing. The class given is in vivo, Sprague Dawley rats. The note with it: for Uterine EPO (Vmax): OVX rats, oral, daily for 4 days. How it is done: (§1) Animals were dosed daily for 4 days. […] A blood sample was collected by cardiac puncture.
The test system of data set [2] is ovariectomized (OVX) rats. The data set is described as follows: Serum cholesterol analysis, four day dosing. The class given is in vivo, Sprague Dawley rats. The procedure:
as §1
Blood samples were allowed to clot at room temperature for 2 hours, and serum was obtained following centrifugation for 10 minutes at 3000 rpm. Serum cholesterol was determined using a Boehringer Mannheim Diagnostics high performance cholesterol assay. Briefly the cholesterol was oxidized to cholest-4-en-3-one and hydrogen peroxide. The hydrogen peroxide was then reacted with phenol and 4-aminophenazone in the presence of peroxidase to produce a p-quinone imine dye, which was read spectrophotemetrically at 500 nm. Cholesterol concentration was then calculated against a standard curve. The entire assay was automated using a Biomek Automated Workstation.

Data set [3] relates to MCF-7 breast adenocarcinoma cells. In words: MCF-7 proliferation assay (tritiated thymidine). Format: cell-based. As to conditions: Homo sapiens, MCF7; MCF-7 cells, 48 hours with drug, tritiated thymidine pulse 4 hours; read-out: ED50 (the source's name). How it is done:
MCF-7 breast adenocarcinoma cells (ATCC HTB 22) were maintained in MEM (minimal essential medium, phenol red-free, Sigma, St. Louis, Mo.) supplemented with 10% fetal bovine serum (FBS) (V/V), L-glutamine (2 mM), sodium pyruvate (1 mM), HEPES {(N-[2-hydroxyethyl]piperazine-N′-[2-ethanesulfonic acid]10 mM}, non-essential amino acids and bovine insulin (1 μg/ml) (maintenance medium). Ten days prior to assay, MCF-7 cells were switched to maintenance medium supplemented with 10% dextrancoated charcoal stripped fetal bovine serum (DCC-FBS) assay medium) in place of 10% FBS to deplete internal stores of steroids. MCF-7 cells were removed from maintenance flasks using cell dissociation medium (Ca++/Mg++ free HBSS (phenol red-free) supplemented with 10 mM HEPES and 2 mM EDTA). Cells were washed twice with assay medium and adjusted to 80,000 cells/ml. Approximately […] (8,000 cells) were added to flat-bottom microculture wells (Costar 3596) and incubated at 37° C. in a 5% CO2 humidified incubator for 48 hours to allow for cell adherence and equilibration after transfer. Serial dilutions of drugs or DMSO as a diluent control were prepared in assay medium and […] to triplicate microcultures followed by […] assay medium for a final volume of […]. […] Samples were counted by liquid scintillation. […]

The subject of data set [4] is ovariectomized (OVX) rats. In words: Four day dosing regimen, post-menopausal rat model: wet uterine weight. Format: in vivo, Sprague Dawley rats. As to conditions: for Uterine Weight (% inc. OVX): OVX rats, oral, daily for 4 days. The procedure:
as §1

Data set [5] deals with ovariectomized (OVX) rats. In words: Thirty-five day dosing regimen: bone density assay (tibia, single photon absorptiometry). Format: in vivo, Sprague Dawley rats. As to conditions: oral in 20% hydroxypropyl β-cyclodextrin, daily for 35 days. How it is done: Following the General Preparation procedure described above, the rats were treated daily for 35 days (6 rats per treatment group) and sacrificed by decapitation on the 36th day. The 35 day time period was sufficient to allow maximal effect on bone density, measured as described herein. At the time of sacrifice, the uteri were removed, dissected free of extraneous tissue, and the fluid contents were expelled before determination of wet weight in order to confirm estrogen deficiency associated with complete ovariectomy. […] The uteri were then placed in 10% neutral buffered formalin to allow for subsequent histological analysis. The right tibias were excised and scanned at the distal metaphysis 1 mm from the patellar groove with single photon absorptiometry. Results of the densitometer measurements represent a calculation of bone density as a function of the bone mineral content and bone width. In accordance with the procedures outlined above, compounds of the present invention and EE2 in 20% hydroxypropyl β-cyclodextrin were orally administered to test animals.

pEC50: −log10 of the molar value. Marks after values point to notes of the source that are not given here.

Consider `COc1ccc(-c2sc3cc(OC)ccc3c2C(=O)c2ccc(OCC(=O)N3CCCCC3)cc2)cc1` [Compound 7], for which the entries for the “Uterine EPO (Vmax)” value in data set [1] (dose 0.1 mg/kg), in data set [1] (dose 1 mg/kg) and in data set [1] (dose 10 mg/kg) were 5.2 Vmax, 3.7 Vmax and 4.7 Vmax, respectively. Moreover, in data set [2] (Rattus norvegicus, po, 96 h, OVX rats, oral, daily for 4 days, dose 0.1 mg/kg, read-out: Serum Cholesterol (% dec. OVX)), the inhibition in vivo at 0.1 mg/kg worked out at 3.4%. Moreover, the inhibition in vivo at 1 mg/kg in data set [2] (Rattus norvegicus, po, 96 h, OVX rats, oral, daily for 4 days, dose 1 mg/kg, read-out: Serum Cholesterol (% dec. OVX)) amounted to 14.6%. The inhibition in vivo at 10 mg/kg in data set [2] (Rattus norvegicus, po, 96 h, OVX rats, oral, daily for 4 days, dose 10 mg/kg, read-out: Serum Cholesterol (% dec. OVX)) was -41.9%. Moreover, the pEC50 in data set [3] was < 6.00. Moreover, the “Uterine Weight (% inc. OVX)” value in data set [4] (dose 0.1 mg/kg) was −0.5 % inc. OVX; in data set [4] (dose 1 mg/kg), −16.2 % inc. OVX; in data set [4] (dose 10 mg/kg), 8.4 % inc. OVX.

As for `C#C[C@]1(O)CC[C@H]2[C@@H]3CCc4cc(O)ccc4[C@H]3CC[C@@]21C` [ethynyl estradiol, 17α-Ethynyl estradiol, reference compound], the “Uterine EPO (Vmax)” value in data set [1] (dose 0.1 mg/kg) is recorded as 120.0* Vmax. In addition, the “eosinophil infiltration into the uterus, by eosinophil peroxidase activity (in words)” value in data set [1] (ovariectomized rats) is “substantial, expected increase”. Also, the “tibia density / bone loss after ovariectomy (in words)” value in data set [5] is “prevented this loss”. Further, the “effect on serum cholesterol compared to ovariectomized control animals (in words)” value in data set [2] (EE2 orally at 0.1 mg/Kg/day) was “decrease in serum cholesterol”. Moreover, the “effect on uterine weight compared to ovariectomized animals (in words)” value in data set [4] (EE2 orally at 0.1 mg/Kg/day) is “substantially greater”. In addition, in data set [4] (dose 0.1 mg/kg), the “Uterine Weight (% inc. OVX)” value is listed as 235.2* % inc. OVX.
